# Data: patent US20170336420A1, “METHODS AND KITS FOR TREATING CARDIOVASCULAR DISEASES” (RAPPAPORT FAMILY INSTITUTE FOR RESEARCH IN THE MEDICAL …, priority 2014, published 2017)
# Like-named read-outs stand apart in the source and are kept apart here.
# Tests used:
# [1] = a little more than a year of treatment; cited from earlier work
# [2] = patients who had a recent acute coronary syndrome; cited from earlier work
# [3] = test system: AIM HIGH participants; test: AIM-HIGH randomized double blind clinical trial, primary composite endpoint of CVD events, also segregated by Hp type; assay type: in vivo, human; conditions: DM participants
# From the text: AIM-HIGH (clinicaltrials.gov NCT00120289) was a randomized double blind clinical trial which set out to test the HDL hypothesis—that raising HDL would reduce CVD events. This hypothesis was based on epidemiological data showing that individuals with higher HDL had lower CVD. AIM-HIGH set out to raise HDL via the drug niacin. […] All participants received simvastatin. The primary endpoint was the first event of the composite of death from coronary heart disease, nonfatal myocardial infarction, ischemic stroke, hospitalization for an acute coronary syndrome, or symptom driven coronary or cerebral revascularization.
# Hp typing was performed by the inventors using polyacrylamide gel electrophoresis. Data on Hp typing was returned to the AIM HIGH coordinating center which provided the event rates in these participants segregated by Hp type and treatment (monotherapy with statins only or combination therapy with statins plus niacin).
# [4] = test system: HDL
# Experimental: (§1) This AIM HIGH substudy was approved by the AIM HIGH steering committee and was designed to investigate whether the Hp phenotype influenced HDL functional metrics in DM participants in AIM HIGH. All 1140 DM participants in AIM HIGH were subjected to Hp phenotyping. Functional HDL metrics (RCT and antioxidant function) was evaluated at baseline and at one year of treatment in 70 Hp 1-1 and 70 Hp 2-2 DM individuals with half in the niacin and half in the placebo group. In 20 Hp 1-1 and 20 Hp 2-2 DM individuals the amount of Hb associated with the HDL at baseline was measured. Individuals performing all functional assays were blinded to treatment assignment of all samples used for this study.
# (§2) The amount of total oxidation and HDL anti-oxidant function were assessed in apolipoprotein (apo)-B depleted serum using the fluorescent and oxidation-sensitive agent dihydrorhodamine 123 (DHR). Apo-B depleted serum was prepared using polyethylene glycol (PEG) as previously described in Asztalos BF, de la Llera-Moya M, Dallal G E, Horvath K V, Schaefer E J, Rothblat G H. Differential effects of HDL subpopulations on cellular ABCA1- and SR-BI-mediated cholesterol efflux. J Lipid Res. 2005; 46:2246-2253
# (§3) Briefly-serum samples were treated with PEG solution to precipitate apoB-containing lipoproteins by adding 40 parts PEG solution (20% PEG in 200 mM glycine buffer, pH 7.4) to 100 parts serum. After a 20 min incubation, the precipitate was removed by high-speed centrifugation (10,000 rpm, 30 min, 4° C.) to obtain the PEG supernatant containing the HDL lipoprotein fraction.
# (§4) Duplicates of 20 μl of apo-B-depleted serum were transferred to clear-bottom 96-well plates, and 180 μl of iron-free Hepes-buffered saline (HBS) containing 50 μM DHR was then added. Immediately after the addition of DHR, the kinetics of fluorescence increase was followed in a BMG Galaxy Fluostar microplate reader at 37° C. with a 485/538 nm excitation/emission filter pair with repeated readings every 2 minutes up to 40 minutes. Total oxidation was calculated as the rate of DHR oxidation (fluorescent units (FU)/min) for each duplicate after subtracting the rate of DHR oxidation observed using the same conditions but in the absence of serum.
# HDL anti-oxidation function represents a fraction of the total oxidation prevented by HDL (in which case HDL is behaving as an antioxidant) or provoked by HDL (in which case HDL is behaving as a pro-oxidant) within each sample. To calculate HDL anti-oxidant function, HDL was depleted by immunoprecipitation from apo-B-depleted serum using anti-human apoA1 antibody and protein A/G Sepharose, before duplicates of corrected volumes of remnant apo-B- and Apo-A-depleted serum were transferred to 96-well plates and the rate of DHR oxidation measured in the identical manner and in parallel with the measurement of total oxidation as described above.
# [5] = for HDL Y1 (mean) / LDL Y1 (mean) / TG Y1 (mean): year 1
# From the text: AIM-HIGH (clinicaltrials.gov NCT00120289) was a randomized double blind clinical trial which set out to test the HDL hypothesis—that raising HDL would reduce CVD events. This hypothesis was based on epidemiological data showing that individuals with higher HDL had lower CVD. AIM-HIGH set out to raise HDL via the drug niacin. The 3414 participants in AIM HIGH were randomly assigned to receive extended release niacin […] vs placebo. All participants received simvastatin. The primary endpoint was the first event of the composite of death from coronary heart disease, nonfatal myocardial infarction, ischemic stroke, hospitalization for an acute coronary syndrome, or symptom driven coronary or cerebral revascularization.
# 70 Hp 1-1 and 70 Hp 2-2 DM AIM HIGH participants, with half in the niacin and half in the placebo group, were randomly selected by the AIM HIGH coordinating center for analysis for HDL metrics at baseline and one year into the study.
# [6] = all participants; increased from mean of 35 mg/dl; cited from earlier work
# [7] = test system: ApoB depleted serum
# Experimental: as §1, §2, §3, §4
# [8] = test system: Murine macrophage J774 cells; conditions: Hp 1-1 group, baseline vs 1 year on niacin
# Experimental: Serum induced reverse cholesterol transport function and HDL antioxidant function were measured in 70 Hp 1-1 and 70 Hp 2-2 participants from the AIM HIGH study at baseline and at one year after randomization to placebo or niacin.
# as §1, with “Individuals performing all functional assays were blinded to treatment assignment of all samples used for this study.” left out
# Measurement of HDL efflux capacity was performed as previously described. […] Liquid scintillation counting was then determined in 500 μl of the medium collected from each well as well as in the cells after washing the cells twice with PBS and lysing them in 0.1 N NaOH. Cholesterol efflux capacity was determined as the percentage efflux of total counts per minute in the medium divided by the total counts per minute in the medium and in the cells and after subtraction of the nonspecific efflux obtained in cells incubated in the absence of serum.
# [9] = test system: AIM HIGH participants; conditions: cited from earlier work
# [10] = test system: HDL; conditions: Hp 2-2 DM individuals; three independent studies; cited from earlier work
# [11] = Hp 2-2 genotype individuals with diabetes mellitus; cited from earlier work
# [12] = Hp 1-1 niacin group, at one year vs baseline
# [13] = Hp 2-2 niacin group, at one year vs baseline
compound,measurement,setting,value
"CC(C)c1c(C(=O)Nc2ccccc2)c(-c2ccccc2)c(-c2ccc(F)cc2)n1CC[C@@H](O)C[C@@H](O)CC(=O)O [Atorvastatin®, Atorvastatin]",deaths,[1],51
"CCC(CC)CC1(C(=O)Nc2ccccc2SC(=O)C(C)C)CCCCC1 [Dalcetrapib®, S-[2-({[1-(2-ethylbutyl)cyclohexyl]carbonyl}amino)phenyl] 2-methylpropanethioate]",HDL cholesterol levels (in words),[2],increase HDL cholesterol levels
same,risk of recurrent cardiovascular events (in words),[2],did not reduce the risk of recurrent cardiovascular events
CCC(C)(C)C(=O)O[C@H]1C[C@@H](C)C=C2C=C[C@H](C)[C@H](CC[C@@H]3C[C@@H](O)CC(=O)O3)[C@H]21 [Simvastatin],"% Primary Event, % of N in this category",[3]; HP1-1,(24.0%)
same,Event Rate,[3]; HP1-1,0.0803
same,N Primary Event,[3]; HP1-1,23
same,"% Primary Event, % of N in this category",[3]; HP2-1,(17.9%)
same,Event Rate,[3]; HP2-1,0.0582
same,N Primary Event,[3]; HP2-1,46
same,"% Primary Event, % of N in this category",[3]; HP2-2,(16.3%)
same,Event Rate,[3]; HP2-2,0.0532
same,N Primary Event,[3]; HP2-2,33
"O=C(O)c1cccnc1 [niacin, pyridine-3-carboxylic acid]",change in HDL antioxidant function (in words),[4]; Hp 1-1 individuals,improved
same,change in HDL antioxidant function (in words),"[4]; Hp 1-1 individuals, listed as Niacin",increase in HDL antioxidant function
same,HDL antioxidant function increased by,[4]; [12],10.8±2.3 units
same,change in HDL antioxidant function (in words),[4]; Hp 2-2 individuals,worsened
same,change in HDL antioxidant function (in words),"[4]; Hp 2-2 individuals, listed as Niacin",significant decline in the antioxidant function
same,HDL antioxidant function decreased by,[4]; [13],8.3±2.9 units
same,HDL Y1 (mean),"[5]; Hp 11 niacin group, HDL base 33.91",40.94
same,LDL Y1 (mean),"[5]; Hp 11 niacin group, LDL base 81.18",67.71
same,TG Y1 (mean),"[5]; Hp 11 niacin group, TG base 193.12",174.97
same,HDL Y1 (mean),"[5]; Hp 22 niacin group, HDL base 33.74",43.29
same,LDL Y1 (mean),"[5]; Hp 22 niacin group, LDL base 65.91",64.15
same,TG Y1 (mean),"[5]; Hp 22 niacin group, TG base 211.88",164.50
same,HDL mass (in words),[5]; both Hp 1-1 and Hp 2-2 DM individuals,significant increase in HDL mass
same,"HDL, mean on treatment",[6],42 mg/dL
same,change in total oxidation (in words),[7]; Hp 1-1 individuals,significant decrease
same,total oxidation decreased by,[7]; [12],19.1±3.4 oxidation units
same,change in total oxidation (in words),[7]; Hp 2-2 individuals,significant increase in total oxidation
same,total oxidation increased by,[7]; [13],13.4±5.0 oxidation units
same,increase in median efflux,[8],14%
same,primary endpoint occurred in patients,"[9]; all 3414 participants, extended release niacin 1500-2000 g/day, all received simvastatin, mean follow up 3 years",282 patients
same,"primary endpoint, % of group","[9]; all participants, niacin group, all received simvastatin, mean follow up 3 years",16.4%
same,HR for primary endpoint,"[9]; niacin group vs placebo group, all participants",1.02
vitamin E,RCT function (in words),[10],restore and significantly improve RCT function
same,risk for cardiovascular diseases (in words),[11],reduces the risk for cardiovascular diseases
